Measurements from ChEMBL document CHEMBL1140845, “Synthesis of deoxygenated alpha(1-->5)-linked arabinofuranose disaccharides as substrates and inhibitors of arabinosyltransferases of Mycobacterium tuberculosis” (Bioorg Med Chem, 2009).
Activity calls are given as the source filed them. The calls are words filed in the database; no cut-off is given here.

The molecules below were run on Mycobacterium tuberculosis (assay: Antimycobacterial activity against multidrug resistant Mycobacterium tuberculosis H37Ra at 12.8 to 128 ug/mL).
Type: functional, organism-based
In the case of `CCCCCCCCO[C@@H]1C[C@H](O)[C@@H](CO[C@H]2O[C@H](CO)[C@@H](O)[C@@H]2O)O1`, the Activity is reported as “Active”. `CCCCCCCCO[C@H]1O[C@H](CO[C@H]2O[C@H](CO)[C@@H](O)[C@@H]2O)C[C@@H]1O` was tested, and the Activity was “Active”. For `CCCCCCCCO[C@H]1O[C@H](CO[C@H]2O[C@H](CO)[C@@H](O)[C@@H]2O)[C@@H](O)[C@@H]1F`, the Activity was “Active”.
